In patent publication US10508104B2, “6-hydroxy-5-(phenyl/heteroarylsulfonyl)pyrimidin-4(1H)-one as APJ agonists” (Bristol-Myers Squibb Company, priority 2016, dated 2019):

Target: human APJ receptor (Homo sapiens (Human), UniProt P35414)
Assay: Intracellular cAMP accumulation assay (APJ hcAMP, HTRF)
Assay type: cell-based
Details: human APJ, intracellular cAMP accumulation; read-out: Human APJ cAMP EC50 Potency range
Description: Intracellular cAMP Accumulation Assay
HEK293 cells stably expressing human APJ receptor were used to assess the activity of compounds. Cultured cells were detached and resuspended in the cAMP Homogeneous Time-Resolved Fluorescence (HTRF) assay buffer (Cisbio cat; #62AM4PEJ). The assay was performed in 384-well assay plates (Perkin-Elmer; cat #6008289) according to assay protocol provided by the manufacturer. Serial dilutions of a compound together with assay buffer containing […] and 2 μM forskolin were added to each well containing 5,000 cells and incubated for 30 minutes at room temperature. Subsequently, cAMP D2 reagent was added in the lysis buffer followed by the EuK antibody (Cisbio; cat #62AM4PEJ) and incubated for 60 min. The fluorescence emission ratio was measured using fluorometer. The intracellular cAMP concentrations (compound-stimulated inhibition of forskolin-mediated cAMP production) were calculated by extrapolation from a standard curve using known cAMP concentrations. The EC50 values were obtained by fitting the data to a sigmoidal concentration-response curve with variable slope.
The EC50 value of each compound is presented at the end of the example description.
The biological activity of the exemplified compounds of this invention determined by the assay described above is shown at the end of each example.

Chain of human APJ receptor (P35414 whole entry): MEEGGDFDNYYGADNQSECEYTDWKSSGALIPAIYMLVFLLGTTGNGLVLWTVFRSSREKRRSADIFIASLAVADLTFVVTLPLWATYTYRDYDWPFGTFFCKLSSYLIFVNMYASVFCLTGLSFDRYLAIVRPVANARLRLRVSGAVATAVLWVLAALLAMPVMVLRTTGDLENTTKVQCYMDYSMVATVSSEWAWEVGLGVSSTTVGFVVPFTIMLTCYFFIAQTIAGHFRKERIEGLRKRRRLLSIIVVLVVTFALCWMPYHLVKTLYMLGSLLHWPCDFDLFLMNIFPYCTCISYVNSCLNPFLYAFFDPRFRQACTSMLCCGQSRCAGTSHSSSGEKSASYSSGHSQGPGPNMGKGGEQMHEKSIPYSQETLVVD

CCCCc1nc(=O)c(S(=O)(=O)c2ccc(-c3ccc(C#N)nc3)cc2)c(O)n1-c1c(OC)cccc1OC [Example 16, 5-(4-{[2-butyl-1-(2,6-dimethoxyphenyl)-6-hydroxy-4-oxo-1,4-dihydropyrimidin-5-yl]sulfonyl)phenyl)pyri-dine-2-carbonitrile]
EC50: 0.01 to 10 nM

COc1cccc(OC)c1-n1c(CCC(C)C)nc(=O)c(S(=O)(=O)c2ccc(-c3ccc(C#N)nc3)cc2)c1O [Example 17, 5-(4-{[1-(2,6-dimethoxyphenyl)-6-hydroxy-2-(3-methylbutyl)-4-oxo-1,4-dihydropyrimidin-5-yl]sulfonyl}phenyl)pyri-dine-2-carbonitrile]
EC50: 0.01 to 10 nM

COc1cccc(OC)c1-n1c(CCC(C)C)nc(=O)c(S(=O)(=O)c2cccc(-c3ccc(F)cc3)c2)c1O [Example 18, 1-(2,6-dimethoxyphenyl)-5-[3-(4-fluorophenyl)benzene-sulfonyl]-6-hydroxy-2-(3-methylbutyl)-1,4-dihydropyrimidin-4-one]
EC50: 0.01 to 10 nM

COc1cccc(OC)c1-n1c(CCC(C)C)nc(=O)c(S(=O)(=O)c2cccc(-c3ccccc3)c2)c1O [Example 19, 1-(2,6-dimethoxyphenyl)-6-hydroxy-2-(3-methylbutyl)-5-(3-phenylbenzenesulfonyl)-1,4-dihydropyrimidin-4-one]
EC50: 0.01 to 10 nM

COc1cccc(OC)c1-n1c(CCC(C)C)nc(=O)c(S(=O)(=O)c2cccc(-c3cn(C)nc3C(F)(F)F)c2)c1O [Example 20, 1-(2,6-dimethoxyphenyl)-6-hydroxy-5-{3-[1-methyl-3-(trifluoromethyl)-1H-pyrazol-4-yl]benzenesulfonyl}-2-(3-methylbutyl)-1,4-dihydropyrimidin-4-one]
EC50: 0.01 to 10 nM

COc1cccc(OC)c1-n1c(CCC(C)C)nc(=O)c(S(=O)(=O)c2ccccc2-c2ccc(F)cc2)c1O [Example 21, 1-(2,6-dimethoxyphenyl)-5-[2-(4-fluorophenyl)benzene-sulfonyl]-6-hydroxy-2-(3-methylbutyl)-1,4-dihydropyrimidin-4-one]
EC50: 10 to 100 nM

COc1cccc(OC)c1-n1c(CCC(C)C)nc(=O)c(S(=O)(=O)c2ccccc2-c2ccccc2)c1O [Example 22, 1-(2,6-dimethoxyphenyl)-6-hydroxy-2-(3-methylbutyl)-5-(2-phenylbenzenesulfonyl)-1,4-dihydropyrimidin-4-one]
EC50: 10 to 100 nM

COc1cccc(OC)c1-n1c(CCC(C)C)nc(=O)c(S(=O)(=O)c2cccc(-c3ccc(F)nc3)c2)c1O [Example 23, 1-(2,6-dimethoxyphenyl)-5-[3-(6-fluoropyridin-3-yl)benzenesulfonyl]-6-hydroxy-2-(3-methylbutyl)-1,4-dihydropyrimidin-4-one]
EC50: 0.01 to 10 nM

COc1cccc(OC)c1-n1c(CCC(C)C)nc(=O)c(S(=O)(=O)c2ccccc2-c2ccc(F)nc2)c1O [Example 24, 1-(2,6-dimethoxyphenyl)-5-[2-(6-fluoropyridin-3-yl)benzenesulfonyl]-6-hydroxy-2-(3-methylbutyl)-1,4-dihydropyrimidin-4-one]
EC50: 10 to 100 nM

COc1cccc(OC)c1-n1c(CCC(C)C)nc(=O)c(S(=O)(=O)c2ccccc2-c2cn(C)nc2C(F)(F)F)c1O [Example 25, 1-(2,6-dimethoxyphenyl)-6-hydroxy-5-{2-[1-methyl-3-(trifluoromethyl)-1H-pyrazol-4-yl]benzenesulfonyl}-2-(3-methylbutyl)-1,4-dihydropyrimidin-4-one]
EC50: 100 to 300 nM

CCCCc1nc(=O)c(S(=O)(=O)c2ccc(-c3ccc(F)cc3C)cc2)c(O)n1-c1c(OC)cccc1OC [Example 26, 2-butyl-1-(2,6-dimethoxyphenyl)-5-[4-(4-fluoro-2-methylphenyl)benzenesulfonyl]-6-hydroxy-1,4-dihydropyrimidin-4-one]
EC50: 0.01 to 10 nM

CCCCc1nc(=O)c(S(=O)(=O)c2ccc(-c3ccnc(C)c3)cc2)c(O)n1-c1c(OC)cccc1OC [Example 27, 2-butyl-1-(2,6-dimethoxyphenyl)-6-hydroxy-5-[4-(2-methylpyridin-4-yl)benzenesulfonyl]-1,4-dihydropyrimidin-4-one]
EC50: 0.01 to 10 nM

CCCCc1nc(=O)c(S(=O)(=O)c2ccc(-c3ccc(N4CCOCC4)nc3)cc2)c(O)n1-c1c(OC)cccc1OC [Example 28, 2-butyl-1-(2,6-dimethoxyphenyl)-6-hydroxy-5-{4-[6-(morpholin-4-yl)pyridin-3-yl]benzenesulfonyl}-1,4-dihydropyrimidin-4-one]
EC50: 0.01 to 10 nM

CCCCc1nc(=O)c(S(=O)(=O)c2ccc(-c3ccccc3OC3CC3)cc2)c(O)n1-c1c(OC)cccc1OC [Example 29]
EC50: 0.01 to 10 nM

CCCCc1nc(=O)c(S(=O)(=O)c2ccc(-c3cccnc3OC)cc2)c(O)n1-c1c(OC)cccc1OC [Example 30, 2-butyl-1-(2,6-dimethoxyphenyl)-6-hydroxy-5-[4-(2-methoxypyridin-3-yl)benzenesulfonyl]-1,4-dihydropyrimidin-4-one]
EC50: 0.01 to 10 nM

CCCCc1nc(=O)c(S(=O)(=O)c2ccc(-c3ccc(C(C)(C)O)cc3)cc2)c(O)n1-c1c(OC)cccc1OC [Example 31, 2-butyl-1-(2,6-dimethoxyphenyl)-6-hydroxy-5-{4-[4-(2-hydroxypropan-2-yl)phenyl]benzene-sulfonyl}-1,4-dihydropyrimidin-4-one]
EC50: 0.01 to 10 nM

COc1cccc(OC)c1-n1c(COC(C)C)nc(=O)c(S(=O)(=O)c2ccc(-c3ccc(F)nc3)cc2)c1O [Example 32, 1-(2,6-dimethoxyphenyl)-5-[4-(6-fluoropyridin-3-yl)benzenesulfonyl]-6-hydroxy-2-[(propan-2-yloxy)methyl]-1,4-dihydropyrimidin-4-one]
EC50: 0.01 to 10 nM

COc1cccc(OC)c1-n1c(COC(C)C)nc(=O)c(S(=O)(=O)c2ccc(-c3ccccc3)cc2)c1O [Example 33, 1-(2,6-dimethoxyphenyl)-6-hydroxy-5-(4-phenylbenzenesulfonyl)-2-[(propan-2-yloxy)methyl]-1,4-dihydropyrimidin-4-one]
EC50: 0.01 to 10 nM

CCCCc1nc(=O)c(S(=O)(=O)c2ccc(-c3ccncc3F)cc2)c(O)n1-c1c(OC)cccc1OC [Example 34, 2-butyl-1-(2,6-dimethoxyphenyl)-5-[4-(3-fluoropyridin-4-yl)benzenesulfonyl]-6-hydroxy-1,4-dihydropyrimidin-4-one]
EC50: 0.01 to 10 nM

CCCCc1nc(=O)c(S(=O)(=O)c2ccc(-c3cc(F)ccc3F)cc2)c(O)n1-c1c(OC)cccc1OC [Example 35, 2-butyl-5-[4-(2,5-difluorophenyl)benzenesulfonyl]-1-(2,6-dimethoxyphenyl)-6-hydroxy-1,4-dihydropyrimidin-4-one]
EC50: 0.01 to 10 nM

CCCCc1nc(=O)c(S(=O)(=O)c2ccc(-c3ccc(Cl)c(F)c3)cc2)c(O)n1-c1c(OC)cccc1OC [Example 36, 2-butyl-5-[4-(4-chloro-3-fluorophenyl)benzene-sulfonyl]-1-(2,6-dimethoxyphenyl)-6-hydroxy-1,4-dihydropyrimidin-4-one]
EC50: 0.01 to 10 nM

CCCCc1nc(=O)c(S(=O)(=O)c2ccc(-c3cnc(F)c(Cl)c3)cc2)c(O)n1-c1c(OC)cccc1OC [Example 37, 2-butyl-5-[4-(5-chloro-6-fluoropyridin-3-yl)benzenesulfonyl]-1-(2,6-dimethoxyphenyl)-6-hydroxy-1,4-dihydropyrimidin-4-one]
EC50: 0.01 to 10 nM

CCCCc1nc(=O)c(S(=O)(=O)c2ccc(-c3ccc(CN(C)C)cc3)cc2)c(O)n1-c1c(OC)cccc1OC [Example 38, 2-butyl-1-(2,6-dimethoxyphenyl)-5-(4-{4-[(dimethyla,o)methyl]phenyl}benzenesulfonyl)-6-hydroxy-1,4-dihydropyrimidin-4-one]
EC50: 0.01 to 10 nM

CCCCc1nc(=O)c(S(=O)(=O)c2ccc(-c3ccc(C(=O)NC4CC4)cc3)cc2)c(O)n1-c1c(OC)cccc1OC [Example 39, 4-(4-{[2-butyl-1-(2,6-dimethoxyphenyl)-6-hydroxy-4-oxo-1,4-dihydropyrimidin-5-yl]sulfonyl}phenyl)-N-cyclopropylbenzamide]
EC50: 0.01 to 10 nM

CCCCc1nc(=O)c(S(=O)(=O)c2ccc(-c3ccncc3C)cc2)c(O)n1-c1c(OC)cccc1OC [Example 40, 2-butyl-1-(2,6-dimethoxyphenyl)-6-hydroxy-5-[4-(3-methylpyridin-4-yl)benzenesulfonyl]-1,4-dihydropyrimidin-4-one]
EC50: 0.01 to 10 nM

CCCCc1nc(=O)c(S(=O)(=O)c2ccc(-c3ccc(C4CC4)nc3)cc2)c(O)n1-c1c(OC)cccc1OC [Example 41, 2-butyl-5-[4-(6-cyclopropylpyridin-3-yl)benzenesulfonyl]-1-(2,6-dimethoxyphenyl)-6-hydroxy-1,4-dihydropyrimidin-4-one]
EC50: 0.01 to 10 nM

CCCCc1nc(=O)c(S(=O)(=O)c2ccc(-c3cccc(F)n3)cc2)c(O)n1-c1c(OC)cccc1OC [Example 42, 2-butyl-1-(2,6-dimethoxyphenyl)-5-[4-(6-fluoropyridin-2-yl)benzenesulfonyl]-6-hydroxy-1,4-dihydropyrimidin-4-one]
EC50: 0.01 to 10 nM

CCCCc1nc(=O)c(S(=O)(=O)c2ccc(-c3ccnc(OC)c3)cc2)c(O)n1-c1c(OC)cccc1OC [Example 43, 2-butyl-1-(2,6-dimethoxyphenyl)-6-hydroxy-5-[4-(2-methoxypyridin-4-yl)benzenesulfonyl]-1,4-dihydropyrimidin-4-one]
EC50: 0.01 to 10 nM

CCCCc1nc(=O)c(S(=O)(=O)c2ccc(-c3ccc(C(N)=O)cc3)cc2)c(O)n1-c1c(OC)cccc1OC [Example 44, 4-(4-{[2-butyl-1-(2,6-dimethoxyphenyl)-6-hydroxy-4-oxo-1,4-dihydropyrimidin-5-yl]sulfonyl}phenyl) benzamide]
EC50: 0.01 to 10 nM
